Two molecules from ChEMBL document CHEMBL5226389, “Isolation of the Anti-Inflammatory Agent Myceliostatin from a Methionine-Enriched Culture of Myceliophthora thermophila ATCC 42464” (J Nat Prod, 2023) can be followed below.

Calls of active or inactive are those of the source. The rule behind the calls is not given here.

In series [1] the test system is RAW264.7. As to the kind of experiment: Cytotoxicity against mouse RAW264.7 cells assessed as reduction in cell viability at 3 microg/ml incubated for 24 hrs by MTT assay. As to conditions: raw264.7, 24 h, dose 3 µg/ml. The format is toxicity, cell-based. (Formazan colour is commonly taken as a measure of viable cells.)
Series [2] deals with RAW264.7. The series can be described thus: Inhibition of LPS-induced NO production in mouse RAW264.7 cells at 0.3 to 3 microg/ml incubated for 24 hrs by griess reagent based microplate reader analysis. The note with it: dose 0.3-3 µg/ml. The format is functional, cell-based. In general terms: Griess reagent forms a coloured azo dye with nitrite.
Series [3] relates to RAW264.7. The series can be described thus: Antiinflammatory activity in LPS-stimulated mouse RAW264.7 cells assessed as inhibition of IL-1beta level incubated for 24 hrs by RT-PCR analysis. The format is functional, cell-based.
Series [4] relates to RAW264.7. The series can be described thus: Antiinflammatory activity in LPS-stimulated mouse RAW264.7 cells assessed as inhibition of IL-6 level incubated for 24 hrs by RT-PCR analysis. The format is functional, cell-based.
The subject of series [5] is RAW264.7. As to the kind of experiment: Antiinflammatory activity in mouse RAW264.7 cells assessed as inhibition of LPS-induced NFkB p65 activation at 3 to 10 microg/ml for 2 hrs followed by LPS stimulation for 2 hrs. The format is functional, cell-based. As to conditions: dose 3-10 µg/ml, time 4.0 hrs.
For series [6], the system named is RAW264.7. The series can be described thus: Cytotoxicity against mouse RAW264.7 cells assessed as reduction in cell viability at 10 microg/ml incubated for 4 hrs by MTT assay. The format is toxicity, cell-based. As to conditions: raw264.7, 4 h, dose 10 µg/ml.
Series [7] has as its system RAW264.7. As to the kind of experiment: Inhibition of LPS-induced ROS production in mouse RAW264.7 cells at 3 to 10 microg/ml preincubated for 1 hr followed by LPS stimulation and measured after 24 hrs by DCFH-DA staining based fluorescence analysis. The format is functional, cell-based. The note with it: dose 3-10 µg/ml, time 25.0 hrs.

For the molecule `C/C=C(\C)[C@H]1C(C)=C[C@@]2(C)C[C@@H](C)CC[C@@H]2[C@H]1C(=O)C1=C(SC)[C@](O)(CC(C)C)NC1=O`, the Activity result with RAW264.7 [1] was “Non-Toxic”. In addition, the inhibition result with RAW264.7 [2] is “Active”.
With `C/C=C(\C)[C@H]1C(C)=C[C@@]2(C)C[C@@H](C)CC[C@@H]2[C@H]1C(=O)C1=C(SC)[C@@](O)(CC(C)C)NC1=O`, the outcome with RAW264.7 [3], in the series with RAW264.7 [4] and in the series with RAW264.7 [5] was Active. The Activity result with RAW264.7 [1] and with RAW264.7 [6] was “Non-Toxic” throughout. Besides, the inhibition result in the series with RAW264.7 [2] and in the series with RAW264.7 [7] was “Active” in each case.
